Read-outs that look alike come from different tables or passages of the source. Non-standard residues stand in square brackets, D forms with d. Residues, ends and D or L forms follow the SMILES beside them. No end group written: not given here. *: point of attachment. Phe(4-NO2) = N[C@@H](Cc1ccc([N+](=O)[O-])cc1)C(=O)O; Phe(4-Cl) = N[C@@H](Cc1ccc(Cl)cc1)C(=O)O; Phe(4-F) = N[C@@H](Cc1ccc(F)cc1)C(=O)O; Phe(4-I) = N[C@@H](Cc1ccc(I)cc1)C(=O)O; hPhe = N[C@@H](CCc1ccccc1)C(=O)O; 3Pal = N[C@@H](Cc1cccnc1)C(=O)O; 2Thi = N[C@@H](Cc1cccs1)C(=O)O; Cha = N[C@@H](CC1CCCCC1)C(=O)O; Bn = c1ccc(C*)cc1
What was measured:
HLA-DR4(B1*0401) = HLA-DR4(B1*0401) (Homo sapiens, UniProt P01903+P01911, A100K/A169T/F76Y/I96L/K127E/L162R/M171V/N62H/P40V/Q125Y/R42H/S133A/S149N/S66Y/V115G/V209L/W38E); assay: HLA-DR4 competition peptide binding assay; settings: competition with biotinylated HA307-319 (Y309F) 50 nM, purified HLA-DR4 30 nM, pH 5, 48 h, room temperature
Experimental: HLA-DR bound marker peptide was separated from free marker peptide and the amount of bound marker peptide was detected and quantified by enhanced chemoluminescense. Inhibition curves were generated and the IC50 was determined. The concentration of competitor peptide inducing 50% inhibition of marker peptide binding was determined, and expressed as the 50% inhibitory concentration (IC50 in μM).

T cell hybridoma 14G11 = assay: T hybridoma 14G11 IL-2 response; type: cell-based, mouse; settings: Figure 1; IL-2 production, DRB1*0401 BLCL as APC; duplicate or triplicate; background 7,152 counts; ±30% of WT response = super/partial agonist
Experimental: (§1) The T cell hybridomas, provided by G Sonderstrup (Stanford, CA, USA), were generated as described. In brief, human CD4, HLA-DRA*101/HLA-DRB*0401 triple transgenic (HLA-DR4trg) mice (devoid of I-Aβ) were immunized in the footpad with 50 μg of purified HC gp-39 mixed in incomplete Freund's adjuvant (IFA). Draining lymph nodes were isolated and T-cell hybridomas were generated by polyethylene glycol fusion of primed and in vitro antigen-restimulated lymph node cells with the AKR BW5147 fusion partner. Following fusion, growth-positive hybridoma wells were screened for reactivity to HC gp-39 and a set of 55 peptides (16 amino acids in length) covering the entire HC gp-39 sequence. HLA-DR4(B1*0401)-restricted hybridomas responsive to both the HC gp-39 protein and the immunodominant epitope 263–275 of HC gp-39 (for example, 5G11, 8B12, 14G11 and 20H5) were cloned, subcloned, characterised and selected for further study.
(§2) HC gp-39-specific IL-2 production by T hybridomas was measured in wells of round-bottomed microtiter plates. Hybridoma cells (2 to 5 × 10^4) and irradiated APC (0.5 to 1 × 10^5; 12,000 to 16,000 RAD) from the B lymphoblastoid cell line (BLCL) carrying the DRB1*0401 specificity were incubated in 150 μl volumes. Antigen was added in 50 μl volumes to duplicate wells. After 48 h, 100 μl of the culture supernatant was assayed for IL-2 production using a sandwich ELISA with Pharmingen antibodies specific for mouse IL-2. The antigen sensitivity of the hybridomas to both peptide and protein was determined (Figure 2). […] In later assays, an excess of peptide or APL (10 μg/ml), inducing maximal responses in all hybridomas, was tested.

T cell hybridoma 8B12 = assay: T hybridoma 8B12 IL-2 response; type: cell-based, mouse; settings: Figure 1; IL-2 production, DRB1*0401 BLCL as APC; duplicate or triplicate; background 16,288 counts; ±30% of WT response = super/partial agonist
Experimental: as §1, §2

T cell hybridoma 5G11 = assay: T hybridoma 5G11 IL-2 response; type: cell-based, mouse; settings: Figure 1; IL-2 production, DRB1*0401 BLCL as APC; duplicate or triplicate; background 29,203 counts; ±30% of WT response = super/partial agonist
Experimental: as §1, §2

[1] = Figure 1, read-out: DRB1*0401 binding IC50
[2] = Table 2, read-out: HLA-DR binding IC50
[3] = Table 1, geometric mean of two experiments, read-out: HLA-DR binding IC50

Row | Compound | IC50 (HLA-DR4(B1*0401); [1]) | T hybridoma (SI) 5G11 (T cell hybridoma 5G11) | IC50 (HLA-DR4(B1*0401); [2]) | other results
1 | CC(C)C[C@H](NC(=O)[C@@H](NC(=O)[C@H](CCc1ccccc1)NC(=O)[C@H](CO)NC(=O)[C@@H](N)CCCNC(=N)N)[C@@H](C)O)C(=O)N[C@@H](C)C(=O)N[C@@H](CO)C(=O)N[C@@H](CO)C(=O)N[C@@H](CCC(=O)O)C(=O)N[C@H](C(=O)NCC(=O)N[C@H](C(=O)NCC(=O)O)C(C)C)[C@@H](C)O [Compound 24] (H-RS[hPhe]TLASSETGVG-OH) | 15 nM |  |  | 
2 | CC(C)C[C@H](NC(=O)[C@@H](NC(=O)[C@H](CC1CCCCC1)NC(=O)[C@H](CO)NC(=O)[C@@H](N)CCCNC(=N)N)[C@@H](C)O)C(=O)N[C@@H](C)C(=O)N[C@@H](CO)C(=O)N[C@@H](CO)C(=O)N[C@@H](CCC(=O)O)C(=O)N[C@H](C(=O)NCC(=O)N[C@H](C(=O)NCC(=O)O)C(C)C)[C@@H](C)O [Compound 25] (H-RS[Cha]TLASSETGVG-OH) | 7 nM | 32 SI |  | T hybridoma (SI) 14G11 (T cell hybridoma 14G11): 26 SI; T hybridoma (SI) 8B12 (T cell hybridoma 8B12): 18 SI
3 | CC(C)C[C@H](NC(=O)[C@@H](NC(=O)[C@H](Cc1cccs1)NC(=O)[C@H](CO)NC(=O)[C@@H](N)CCCNC(=N)N)[C@@H](C)O)C(=O)N[C@@H](C)C(=O)N[C@@H](CO)C(=O)N[C@@H](CO)C(=O)N[C@@H](CCC(=O)O)C(=O)N[C@H](C(=O)NCC(=O)N[C@H](C(=O)NCC(=O)O)C(C)C)[C@@H](C)O [Compound 26] (H-RS[2Thi]TLASSETGVG-OH) | 9 nM | 23 SI |  | T hybridoma (SI) 14G11 (T cell hybridoma 14G11): 31 SI; T hybridoma (SI) 8B12 (T cell hybridoma 8B12): 18 SI
4 | CC(C)C[C@H](NC(=O)[C@@H](NC(=O)[C@H](Cc1cccnc1)NC(=O)[C@H](CO)NC(=O)[C@@H](N)CCCNC(=N)N)[C@@H](C)O)C(=O)N[C@@H](C)C(=O)N[C@@H](CO)C(=O)N[C@@H](CO)C(=O)N[C@@H](CCC(=O)O)C(=O)N[C@H](C(=O)NCC(=O)N[C@H](C(=O)NCC(=O)O)C(C)C)[C@@H](C)O [Compound 29] (H-RS[3Pal]TLASSETGVG-OH) | 16 nM | 23 SI |  | T hybridoma (SI) 14G11 (T cell hybridoma 14G11): 44 SI; T hybridoma (SI) 8B12 (T cell hybridoma 8B12): 19 SI
5 | CC(C)C[C@H](NC(=O)[C@@H](NC(=O)[C@H](Cc1ccc(F)cc1)NC(=O)[C@H](CO)NC(=O)[C@@H](N)CCCNC(=N)N)[C@@H](C)O)C(=O)N[C@@H](C)C(=O)N[C@@H](CO)C(=O)N[C@@H](CO)C(=O)N[C@@H](CCC(=O)O)C(=O)N[C@H](C(=O)NCC(=O)N[C@H](C(=O)NCC(=O)O)C(C)C)[C@@H](C)O [Compound 30] (H-RS[Phe(4-F)]TLASSETGVG-OH) | 12 nM | 29 SI |  | T hybridoma (SI) 14G11 (T cell hybridoma 14G11): 27 SI; T hybridoma (SI) 8B12 (T cell hybridoma 8B12): 17 SI
6 | CC(C)C[C@H](NC(=O)[C@@H](NC(=O)[C@H](Cc1ccc(Cl)cc1)NC(=O)[C@H](CO)NC(=O)[C@@H](N)CCCNC(=N)N)[C@@H](C)O)C(=O)N[C@@H](C)C(=O)N[C@@H](CO)C(=O)N[C@@H](CO)C(=O)N[C@@H](CCC(=O)O)C(=O)N[C@H](C(=O)NCC(=O)N[C@H](C(=O)NCC(=O)O)C(C)C)[C@@H](C)O [Compound 31] (H-RS[Phe(4-Cl)]TLASSETGVG-OH) | 9 nM | 32 SI |  | T hybridoma (SI) 14G11 (T cell hybridoma 14G11): 29 SI; T hybridoma (SI) 8B12 (T cell hybridoma 8B12): 14 SI
7 | CC(C)C[C@H](NC(=O)[C@@H](NC(=O)[C@H](Cc1ccc(I)cc1)NC(=O)[C@H](CO)NC(=O)[C@@H](N)CCCNC(=N)N)[C@@H](C)O)C(=O)N[C@@H](C)C(=O)N[C@@H](CO)C(=O)N[C@@H](CO)C(=O)N[C@@H](CCC(=O)O)C(=O)N[C@H](C(=O)NCC(=O)N[C@H](C(=O)NCC(=O)O)C(C)C)[C@@H](C)O [Compound 33] (H-RS[Phe(4-I)]TLASSETGVG-OH) | < 9 nM | 26 SI |  | 
8 | CC(C)C[C@H](NC(=O)[C@@H](NC(=O)[C@H](Cc1ccc([N+](=O)[O-])cc1)NC(=O)[C@H](CO)NC(=O)[C@@H](N)CCCNC(=N)N)[C@@H](C)O)C(=O)N[C@@H](C)C(=O)N[C@@H](CO)C(=O)N[C@@H](CO)C(=O)N[C@@H](CCC(=O)O)C(=O)N[C@H](C(=O)NCC(=O)N[C@H](C(=O)NCC(=O)O)C(C)C)[C@@H](C)O [Compound 34] (H-RS[Phe(4-NO2)]TLASSETGVG-OH) | 13 nM | 32 SI |  | T hybridoma (SI) 14G11 (T cell hybridoma 14G11): 33 SI; T hybridoma (SI) 8B12 (T cell hybridoma 8B12): 20 SI
9 | CC(C)C[C@H](NC(=O)[C@@H](NC(=O)[C@H](COCc1ccccc1)NC(=O)[C@H](CO)NC(=O)[C@@H](N)CCCNC(=N)N)[C@@H](C)O)C(=O)N[C@@H](C)C(=O)N[C@@H](CO)C(=O)N[C@@H](CO)C(=O)N[C@@H](CCC(=O)O)C(=O)N[C@H](C(=O)NCC(=O)N[C@H](C(=O)NCC(=O)O)C(C)C)[C@@H](C)O [Compound 35] (H-RSS(Bn)TLASSETGVG-OH) | 7 nM | 28 SI |  | T hybridoma (SI) 14G11 (T cell hybridoma 14G11): 31 SI; T hybridoma (SI) 8B12 (T cell hybridoma 8B12): 20 SI
10 | ASFTLASSETGVG [Compound 10] |  |  | 100 nM | 
11 | FTLASSETGVG [Compound 6] |  |  |  | IC50 (HLA-DR4(B1*0401); [3]): 110 nM
12 | RAFTLASSETGVG [Compound 11] |  |  | 100 nM | 
13 | RSFALASSETGVG [Compound 13] |  |  | 60 nM | 
14 | RSFTAASSETGVG [Compound 14] |  |  | 80 nM | 
15 | RSFTLAASETGVG [Compound 16] |  |  | 50 nM | 
16 | RSFTLASAETGVG [Compound 17] |  |  | 50 nM | 
17 | RSFTLASSATGVG [Compound 18] |  |  | 40 nM | 
18 | RSFTLASSEAGVG [Compound 19] |  |  | 40 nM | 
19 | RSFTLASSET [Compound 4] |  |  |  | IC50 (HLA-DR4(B1*0401); [3]): 7000 nM
20 | RSFTLASSETAVG [Compound 20] |  |  | 50 nM | 
21 | RSFTLASSETG [Compound 3] |  |  |  | IC50 (HLA-DR4(B1*0401); [3]): 200 nM
22 | RSFTLASSETGAG [Compound 21] |  |  | 60 nM | 
23 | RSFTLASSETGV [Compound 2] |  |  |  | IC50 (HLA-DR4(B1*0401); [3]): 90 nM
24 | RSFTLASSETGVA [Compound 22] |  |  | 50 nM | 
25 | SFTLASSETGV [Compound 9] |  |  |  | IC50 (HLA-DR4(B1*0401); [3]): 120 nM
26 | SFTLASSETGVG [Compound 5] |  |  |  | IC50 (HLA-DR4(B1*0401); [3]): 90 nM

— PMC2206373, “Identification of an altered peptide ligand based on the endogenously presented, rheumatoid arthritis-associated, human cartilage glycoprotein-39(263–275) epitope: an MHC anchor variant peptide for immune modulation” (Arthritis Research & Therapy, 2007)
